Measured values published in publication PMC3989207, “Subchronic Toxicological Study of Two Artemisinin Derivatives in Dogs” (PLoS ONE, 2014).
Where two headings read alike, the source gives them in different places. One block for each compound: values may come before it.

How the values were obtained:
Dogs = test system: Dogs; design: method as in PMID 8053022, PMID 8053028, PMID 7943542; settings: for 4 weeks; cited from earlier work
[1] = design: method as in PMID 11060779; settings: cited from earlier work
beagle dogs [2] = assay: Electrocardiography in the 13-week repeated-dose dog study; type: in vivo; settings: 6 mg kg^-1 per day p.o.; weeks 3 and 5 in males, weeks 5–9 in females (p<0.01), late stages (p<0.05)
Protocol: (§1) The first day of treatment was regarded as day one in the study. […] Oral administration was performed about 2 h after feeding. ARM was administered by a bolus intramuscular infusion through a 25-gauge needle at a constant volume of 2 ml kg^−1 once a day into the gluteal and infraspinous muscles. Two dogs of each sex from each group were allowed to recover without further treatment for an additional 4 weeks.
Electrocardiograms were recorded using an Auto Electrocardiogram (ECG-9130P, Nihon Kohden Corporation, Japan). Recordings were taken from each dog, while conscious, every 2 weeks from week-1. Leads I, II, III, aVR, aVL and aVF were utilized. The electrocardiography (ECG) parameters included heart rate, PR, QRS and QT interval, and QRS and T wave amplitudes. As the PQ and QT intervals vary with heart rate, they were adjusted to an RR-interval of 500 ms, corresponding to a heart rate of 120 bpm using the following equation: QT500 = QT – 0.084×(RR – 500).

beagle dogs [3] = assay: Clinical chemistry in the 13-week repeated-dose dog study; type: in vivo
Protocol: as §1
(§2) Blood samples were collected from the femoral vein of each dog prior to treatment and every 2 weeks after the first day of treatment. Hematology parameters were measured using an automated hematology analyzer (Sysmex, XT-2000iv, Toa Medical Electronics Co. Ltd., Kobe, Japan) using standard methods. Test parameters included hemoglobin (Hb) levels, the hematocrit (Hct) fraction, erythrocyte (RBC) count, leukocyte (WBC) count, neutrophilic granulocyte fraction (NE%), monocyte fraction (MO%), lymphocyte levels (LY%), platelet count (PLT), reticulocyte count (RET%) and RBC morphology. The following clinical chemistry parameters were measured using a Hitachi-7180 Chemistry Analyzer (High-Technologies Corporation, Tokyo, Japan) and standard methods: glucose, blood urea nitrogen, inorganic phosphorus, creatinine, total protein, albumin, calcium, aspartate aminotransferase (AST), alanine aminotransferase, alkaline phosphatase, total bilirubin, creatine kinase (CK), sodium, potassium and chloride.

beagle dogs [4] = assay: Hematology in the 13-week repeated-dose dog study; type: in vivo
Protocol: as §1, §2
The differential granulocytic and erythrocytic series (erythroid, myeloid blast cell count and the red ratio) were determined manually from blood smears.

[5] = Toxicokinetic analysis of plasma drug levels (HPLC); type: in vivo, dog; settings: both sexes, beagle, dog, plasma, other: ART p.o., ARM i.m., 6 mg/kg, ARM i.m.; for AUC: 6 mg kg^−1 daily, ART p.o., dog plasma
Protocol: as §1
For toxicokinetic analysis, blood samples were collected on weeks 1, 2, 4, 8 and 13 at 0 (before dosing), 0.5, 1, 2, 4, 8, 12 and 24 h after dosing. Approximately 1 ml blood was drawn from the antebrachial, cephalic or jugular vein of three animals of each sex per time point and deposited into heparinized tubes for immediate centrifugation at 3000 rpm at 4°C for 10 min. The plasma was then immediately transferred to 2 ml polypropylene tubes and stored on dry ice. Samples were stored at −80°C until HPLC analysis.

beagle dogs [6] = assay: Pathologic (histopathological) examination of organs, brain and cardiac conduction system; type: in vivo, dog
Protocol: as §1
Termination of treatment was scheduled to occur on weeks 4, 8 (two interim necropsies) and 13, followed by a 4-week recovery period. For pathological examinations, the animals were euthanized within 24 h of the final drug administration with sodium pentobarbital, followed by exsanguination via the femoral artery. A gross necropsy was performed, including a thorough visual examination of all the internal organs. Weights were obtained for the brain, heart, liver, spleen, lung, kidneys, adrenals, thyroid/parathyroids, thymus, pancreas and ovaries/testes/prostate, and organ-to-body weight ratios were calculated. For each animal, representative samples from approximately 48 organs and tissues were taken and fixed in neutral buffered 10% formalin, except for the sternum, which was retained in Helly’s fixative (1000 ml distilled water, 25 g potassium dichromate, 10 g sodium sulfate, 50 g mercuric chloride, 50 ml 40% formaldehyde). Histopathological sections of all samples were prepared by embedding in paraffin wax, multiple-sectioning and staining with hematoxylin and eosin (HE). Samples of the left ventricular myocardium, right lateral hepatic lobe and right kidney from two animals of each sex from each group were fixed immediately after exsanguination in 2.5% glutaraldehyde, post-fixed in 1.0% osmium tetroxide, and embedded in plastic. Ultrathin liver, kidney and heart sections were examined with a Hitachi H-600 transmission electron microscope (TEM). All other tissues were examined by light microscopy.
After removal, the cardiac conduction system, including the sinoatrial node (SAN) and atrioventricular node (AVN), were selected by the Palate method. The brain was sectioned at multiple transverse levels to obtain susceptible brain regions. To improve the definition of the brain lesions, toluidine stains were applied on selected duplicate sections, and all preparations were examined under a light microscope. For pathologic examinations, degenerative neurons were evaluated on three randomly selected brain sections. The adjacent fields of neurons in each selected section were counted using a microscope at a magnification of 200×. […] The severity of the neuropathological lesions was defined as follows: the total number of neuropathological lesions per section area yielded a severity score from 0 to 4, where 0 = unaffected, 1 = minimally affected neurons with one degenerative cell per section, 2 = two degenerative cells per section, 3 = three degenerative cells per section and 4 = multiple degenerative areas per section.

beagle dogs [7] = assay: Ultra-structural examination of liver, kidney and heart by transmission electron microscopy; type: in vivo, dog; settings: weeks 4, 8 and 13; TEM
Protocol: as §1
Termination of treatment was scheduled to occur on weeks 4, 8 (two interim necropsies) and 13, followed by a 4-week recovery period. For pathological examinations, the animals were euthanized within 24 h of the final drug administration with sodium pentobarbital, followed by exsanguination via the femoral artery. A gross necropsy was performed, including a thorough visual examination of all the internal organs. Weights were obtained for the brain, heart, liver, spleen, lung, kidneys, adrenals, thyroid/parathyroids, thymus, pancreas and ovaries/testes/prostate, and organ-to-body weight ratios were calculated. For each animal, representative samples from approximately 48 organs and tissues were taken and fixed in neutral buffered 10% formalin, except for the sternum, which was retained in Helly’s fixative (1000 ml distilled water, 25 g potassium dichromate, 10 g sodium sulfate, 50 g mercuric chloride, 50 ml 40% formaldehyde). […]

[8] = design: method as in Teja-Isavadharm et al. (1996); settings: after oral administration compared with i.m. injection of ARM in an oil-based vehicle; ref Teja-Isavadharm et al. (1996); cited from earlier work
[9] = Week 13, females, 6 mg kg^-1 per day
[10] = week 2 until week 10 post-treatment, vs control groups (p<0.05)
[11] = Week 4, 6 mg kg^-1 per day (ART p.o., ARM i.m.)
[12] = Week 8, 6 mg kg^-1 per day (ART p.o., ARM i.m.)
[13] = Week 13, 6 mg kg^-1 per day (ART p.o., ARM i.m.)
[14] = Week 17 (after 4-week recovery)
[15] = both treated groups, no significant differences

SMILES: CCO[C@H]1O[C@@H]2O[C@@]3(C)CC[C@H]4[C@H](C)CC[C@@H]([C@H]1C)[C@@]24OO3 [ARE, arteether]
- calculated average minimal daily dose necessary to produce toxicity observable by histopathology (Dogs): 6 mg kg^−1
- solubility character [1]: fat soluble

- Clinical chemistry (overall) (beagle dogs [3]; Week 8, 6 mg kg^-1 per day): - (“-” = No effect)
- Clinical chemistry: Alb(F) (beagle dogs [3]; [9]): ↓TP(F), ↓Alb(F)
- Clinical chemistry: TP(F) (beagle dogs [3]; [9]): ↓TP(F), ↓Alb(F)
- serum albumin levels (beagle dogs [3]; weeks 10 and 12): significant decrease
- Hematology: Hb (beagle dogs [4]; Week 4, 6 mg kg^-1 per day): ↓Hct, ↓Hb
- Hematology: Hct (beagle dogs [4]; Week 4, 6 mg kg^-1 per day): ↓Hct, ↓Hb
- Hematology: Hb (beagle dogs [4]; Week 8, 6 mg kg^-1 per day): ↓Hct, ↓Hb, ↓MCV
- Hematology: Hct (beagle dogs [4]; Week 8, 6 mg kg^-1 per day): ↓Hct, ↓Hb, ↓MCV
- Hematology: MCV (beagle dogs [4]; Week 8, 6 mg kg^-1 per day): ↓Hct, ↓Hb, ↓MCV
- Hematology: Hb (beagle dogs [4]; Week 13, 6 mg kg^-1 per day): ↓Hct, ↓Hb
- Hematology: Hct (beagle dogs [4]; Week 13, 6 mg kg^-1 per day): ↓Hct, ↓Hb
- MO% (beagle dogs [4]; males and females, after weeks 2 and 4 (p<0.05)): significant increases
- Hb levels (beagle dogs [4]; week 2): corresponding decrease
- RBC counts (beagle dogs [4]; week 2): decrease
- LY% (beagle dogs [4]; [10]): decreased
- NE% (beagle dogs [4]; [10]): significantly increased
- WBC count (beagle dogs [4]; [10]): significantly increased
SMILES: C[C@H]1[C@H](OC(=O)CCC(=O)O)O[C@@H]2O[C@@]3(C)CC[C@H]4[C@H](C)CC[C@@H]1[C@@]24OO3 [ART, artesunate]
- heart rate during treatment (beagle dogs [2]): statistically significant decrease
- AUC ([5]; week 8, read-out: AUC8w): 580 ± 211 ng·h/mL
- AUC ([5]; week four, read-out: AUC4w): 1270 ± 539 ng·h/mL
- AUC(0-t) ([5]; read-out: AUC93D): 729 ± 440 ng·h/mL
- neurotoxicity (beagle dogs [6]; 6 mg kg^-1 per day p.o. for 13 weeks): not observed
- Cardiac conduction system foci (dogs affected/examined) (beagle dogs [6]; [11]): 0
- Extramedullary hematopoiesis (dogs affected/examined) (beagle dogs [6]; [11]): 3/4
- Hepatocyte necrosis (dogs affected/examined) (beagle dogs [6]; [11]): 0
- Inhibition of erythropoiesis (dogs affected/examined) (beagle dogs [6]; [11]): 2/4
- Neuronal necrosis (dogs affected/examined) (beagle dogs [6]; [11]): 0
- Tubular cell degeneration (dogs affected/examined) (beagle dogs [6]; [11]): 2/4
- Cardiac conduction system foci (dogs affected/examined) (beagle dogs [6]; [12]): 1/4
- Extramedullary hematopoiesis (dogs affected/examined) (beagle dogs [6]; [12]): 1/4
- Hepatocyte necrosis (dogs affected/examined) (beagle dogs [6]; [12]): 0
- Inhibition of erythropoiesis (dogs affected/examined) (beagle dogs [6]; [12]): 0
- Neuronal necrosis (dogs affected/examined) (beagle dogs [6]; [12]): 0
- Tubular cell degeneration (dogs affected/examined) (beagle dogs [6]; [12]): 3/4
- Cardiac conduction system foci (dogs affected/examined) (beagle dogs [6]; [13]): 2/4
- Extramedullary hematopoiesis (dogs affected/examined) (beagle dogs [6]; [13]): 0
- Hepatocyte necrosis (dogs affected/examined) (beagle dogs [6]; [13]): 0
- Inhibition of erythropoiesis (dogs affected/examined) (beagle dogs [6]; [13]): 0
- Neuronal necrosis (dogs affected/examined) (beagle dogs [6]; [13]): 0
- Tubular cell degeneration (dogs affected/examined) (beagle dogs [6]; [13]): 0
- Cardiac conduction system foci (dogs affected/examined) (beagle dogs [6]; [14]): 0
- Extramedullary hematopoiesis (dogs affected/examined) (beagle dogs [6]; [14]): 0
- Hepatocyte necrosis (dogs affected/examined) (beagle dogs [6]; [14]): 0
- Inhibition of erythropoiesis (dogs affected/examined) (beagle dogs [6]; [14]): 0
- Neuronal necrosis (dogs affected/examined) (beagle dogs [6]; [14]): 0
- Tubular cell degeneration (dogs affected/examined) (beagle dogs [6]; [14]): 1/4
- histological examination of sternal bone marrow (beagle dogs [6]; [15]): mild inhibition of erythropoiesis and a decreased count of mature erythrocytes
- spleen histology (beagle dogs [6]; [15]): extramedullary hematopoiesis was observed in the spleen
- histopathological changes in the kidneys (beagle dogs [6]; vs control groups): tubular epithelium vacuolation and necrosis
- ultra-structural findings in hepatocytes, myocardial cells and proximal tubules in the kidney (beagle dogs [7]): Mitochondrial bending and distortion and swollen vacuoles
- solubility character [1]: water soluble
- decline of plasma concentrations [8]: declined much faster after oral administration

SMILES: C[C@H]1[C@@H](O)O[C@@H]2O[C@@]3(C)CC[C@H]4[C@H](C)CC[C@@H]1[C@@]24OO3 [DHA, dihydroartemisinin]
- decline of plasma concentrations [8]: declined much faster after oral administration
